# Read-outs that look alike come from different tables or passages of the source.
# How the values were obtained:
# LTA4-h [1] = biological target: T1, LTA4-h (Homo sapiens, UniProt P09960); experiment: hydrolase assay (hydrolase-homogeneous time resolved fluorescence); format: biochemical
# T1 sequence (P09960 1-611): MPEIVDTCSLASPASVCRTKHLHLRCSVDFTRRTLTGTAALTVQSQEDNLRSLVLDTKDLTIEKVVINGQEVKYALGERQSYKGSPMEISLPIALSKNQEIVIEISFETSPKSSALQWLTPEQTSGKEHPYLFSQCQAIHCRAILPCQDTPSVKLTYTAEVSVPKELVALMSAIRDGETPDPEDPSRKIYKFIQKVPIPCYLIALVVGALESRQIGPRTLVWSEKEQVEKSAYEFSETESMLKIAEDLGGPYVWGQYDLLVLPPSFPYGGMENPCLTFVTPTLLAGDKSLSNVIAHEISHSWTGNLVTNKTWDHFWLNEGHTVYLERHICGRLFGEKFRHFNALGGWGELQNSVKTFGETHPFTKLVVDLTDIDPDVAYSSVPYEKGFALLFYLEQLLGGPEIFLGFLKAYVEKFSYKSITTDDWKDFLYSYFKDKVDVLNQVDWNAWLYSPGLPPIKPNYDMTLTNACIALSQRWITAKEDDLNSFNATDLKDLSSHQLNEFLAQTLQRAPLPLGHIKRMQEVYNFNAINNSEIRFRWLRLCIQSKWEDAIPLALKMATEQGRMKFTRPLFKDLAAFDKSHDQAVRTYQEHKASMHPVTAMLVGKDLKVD
# Excerpt: The compounds of the invention can be tested for their ability to inhibit LTA4-h by various known assays and by assays described herein. For example, the compounds can be tested for their ability to inhibit LTA4-h activity by assaying the compounds in the hydrolase-homogeneous time resolved fluoroescence assay. This assay, which is a two-step assay, measures the hydrolysis of […] to LTB4 by analyzing the amount of LTB4 produced. The first step involves the enzymatic conversion of […] to LTB4 and the second step involves the quantification of the […] with a homogeneous time resolved fluoroescence assay.
# (§1) Tables 4 to 6 below show the IC50 values for peptidase, hydrolase and whole blood assay (WBA) activity for exemplary compounds encompassed by the invention. The whole blood and aminopeptidase assays were performed as described in Penning et al., J. Med. Chem. 2000, 43, 721-735, and Rudberg et al., J. Biol. Chem. Vol. 279, No. 26, Issue of June 25, pp. 27376-27382, 2004, the contents of each of which are expressly incorporated by reference herein. The hydrolase assay was performed as described in U.S. Pat. No. 7,737,145, the contents of which are expressly incorporated herein.
# LTA4-h hydrolase = biological target: T2, LTA4-h hydrolase (Homo sapiens, UniProt P09960); experiment: whole blood assay (WBA); format: cell-based
# T2 construct: from tissue; host or cells: whole blood
# T2 sequence (P09960 1-611): T1 sequence (P09960 1-611)
# Excerpt: Compounds of the invention can also be tested for their ability as inhibitors of LTA4-h hydrolase in the whole blood assay using human, mouse, rat or dog whole blood (see Penning, T. D. et al., J. Med. Chem. (2000), 43(4): 721-735 for a description of a human whole blood assay and a mouse whole blood assay, the contents of which are expressly incorporated herein).
# as §1
# LTA4-h [2] = biological target: T1, LTA4-h; experiment: peptidase (aminopeptidase) assay; format: biochemical
# Excerpt: Since LTA4-h hydrolase is grouped with the M1 family of zinc metalloproteases (see, Rudberg, P. C. et al., J. Biol. Chem. 2002, Vol. 277, page 1398-1404), the compounds of the invention can be tested in the standard hydrolase and peptidase assay to determine the compounds' kinetic constants for binding to LTA4-h hydrolase and for inhibiting LTB4 synthesis (see Askonas, L. J., et al., The Journal of Pharmacology and Experimental Therapeutics 2002, 300(2): 577-582; Penning, T. D., J. Med. Chem. 2000, 43(4): 721-735; Kull, F. et al., The Journal of Biological Chemistry 1999, 274 (49): 34683-34690, the contents of which are expressly incorporated by reference herein).
# as §1, with “The” for “Tables 4 to 6 below show the IC50 values for peptidase, hydrolase and whole blood assay (WBA) activity for exemplary compounds encompassed by the invention. The”
# [3] = system: ionophore-induced LTB4 production; details: oral administration; mouse blood ex vivo; cited from earlier work
# colitis = details: eight weeks of treatment; cotton top tamarins; cited from earlier work
# [4] = system: ionophore-induced LTB4 production; details: oral administration; rat peritoneum in vivo; cited from earlier work
# [5] = prefix 'r' not defined, read-out: IC50 WBA, second value given with prefix 'r'
IC50 (LTA4-h [1]) [nM],IC50 (LTA4-h hydrolase; read-out: IC50 WBA) [nM],IC50 (LTA4-h [2]) [nM],SMILES,other results
3,55,13,O=C(O)C1CCCN(c2ccc(CNCc3ccc(Oc4ccc(-c5ncco5)cc4)cc3)cn2)C1 (stereo not shown) [Compound 25],
,,,CN(CCCOc1ccc(Cc2ccccc2)cc1)CCC(=O)O.Cl [SC57461],inhibition of ionophore-induced LTB4 production [3]: caused inhibition; colitis symptoms (colitis): significantly improved colitis symptoms; inhibition of ionophore-induced LTB4 production [4]: caused inhibition
,,21,O=C(O)C1CCCN(c2ccc(CNCc3ccc(Oc4ccc(CCO)cc4)cc3)cn2)C1 (stereo not shown) [Compound 40],
3,880,81,Cc1c(C(=O)O)ncn1-c1ccc(CNCc2ccc(Oc3ccc(Cl)cc3)cc2)cn1 [Compound 16],
280,210,490,CN(Cc1ccc(C(=O)O)cc1)c1ccc(CNCc2ccc(Oc3ccc(Cl)cc3)cc2)cn1 [Compound 1],
,,45,O=C(O)C1CCCN(c2ccc(CNCc3ccc(Oc4ccc(Cl)cc4)cc3)cc2F)C1 (stereo not shown) [Compound 19],
33,360,12,CN(Cc1ccc(Oc2ccc(-c3ncco3)cc2)cc1)Cc1cccnc1Oc1ccc(C(=O)O)cc1 [Compound 12],
,,,CCOC(=O)c1ccc(Oc2ncccc2CN(C)Cc2ccc(Oc3ccc(-c4ncco4)cc3)cc2)cc1 [Compound 11],inhibition at 1 µM (LTA4-h [2]): 17%
85,180,33,CN(Cc1ccc(Oc2ccc(-c3ncco3)cc2)cc1)Cc1ccc(N2CCCC(C(=O)O)C2)nc1 (stereo not shown) [Compound 26],
9,230,42,O=C(O)C1CCCN(c2ccc(CNCc3ccc(OC/C=C/c4ccccc4)cc3)cn2)C1 (stereo not shown) [Compound 31],
8,,8,O=C(O)C1CCCN(c2ccc(CNCc3ccc(Oc4ccc5c(c4)OCO5)cc3)cn2)C1 (stereo not shown) [Compound 33],
,160,4,O=C(O)C1CCCN(c2ccc(CNCc3ccc(Oc4nc5ccccc5s4)cc3)cn2)C1 (stereo not shown) [Compound 29],
50,290,78,CN(Cc1ccc(Oc2ccc(Cl)cc2)cc1)Cc1cccnc1Oc1ccc(C(=O)O)cc1 [Compound 8],
19,,7,O=C(O)C1CCCN(c2ccc(CNCc3ccc(Oc4cnc5ccccc5n4)cc3)cn2)C1 (stereo not shown) [Compound 36],
,,12,O=C(O)[C@H]1CCCN(c2ccc(CNCc3ccc(Oc4cnc5ccccc5n4)cc3)cn2)C1 [Compound 37],
4.8,32,3.9,O=C(O)C1CCCN(c2ccc(CNCc3ccc(Oc4ccc(Cl)cc4)cc3)cn2)C1 (stereo not shown) [Compound 22],
69,730,68,O=C(O)C1CCN(c2ccc(CNCc3ccc(Oc4ccc(Cl)cc4)cc3)cn2)CC1 [Compound 2],IC50 (LTA4-h hydrolase; [5]): 360 nM
86,,13,O=C(O)C1CCCN(c2ccc(CNCc3ccc(Oc4ncccn4)cc3)cn2)C1 (stereo not shown) [Compound 34],
68,,16,O=C(O)C1CCCN(c2ccc(CNCCc3ccc(Oc4ncccn4)cc3)cc2)C1 (stereo not shown) [Compound 18],
700,470,85,COCCN(Cc1ccc(Oc2ccc(Cl)cc2)cc1)Cc1ccc(N2CCCC(C(=O)O)C2)nc1 (stereo not shown) [Compound 23],

IC50 (LTA4-h [1]) [nM],IC50 (LTA4-h hydrolase; read-out: IC50 WBA) [nM],IC50 (LTA4-h [2]) [nM],SMILES,other results
,,2,O=C(O)CCNc1ccc(CNCc2ccc(Oc3ccc(Cl)cc3)cc2)cn1 [Compound 21],
,,10,CN(CC(=O)O)c1ccc(CNCc2ccc(Oc3ccc(Cl)cc3)cc2)cn1 [Compound 20],
110,,45,O=C(O)C1CCCN(c2ccc(CNCc3ccc(OCc4ccc(Cl)cc4)cc3)cn2)C1 (stereo not shown) [Compound 35],
23,1900,39,O=C(O)c1ccc(Oc2ncccc2CNCc2ccc(Oc3ccc(-c4ncco4)cc3)cc2)cc1 [Compound 10],
,,16,O=C(O)[C@@H]1CCCN(c2ccc(CNCc3ccc(Oc4cnc5ccccc5n4)cc3)cn2)C1 [Compound 38],
5,,54,O=C(O)C1CCCN(c2ccc(CNCCc3ccc(Oc4nc5ccccc5s4)cc3)cc2)C1 (stereo not shown) [Compound 17],
260,1000,73,C=CCOc1ccc(CNCc2ccc(N3CCCC(C(=O)O)C3)nc2)cc1 (stereo not shown) [Compound 28],
320,510,48,CN(Cc1ccc(Oc2ccc(Cl)cc2)cc1)Cc1ccc(N2CCCC(C(=O)O)C2)nc1 (stereo not shown) [Compound 27],
,,,CCOC(=O)c1ccc(Oc2ncccc2CNCc2ccc(Oc3ccc(Cl)cc3)cc2)cc1 [Compound 6],inhibition at 1 µM (LTA4-h [2]): 18%
,> 3000,850,O=C(O)c1ccc(CNc2ccc(Oc3ccc(Cl)cc3)cc2)cc1 [Compound 42],inhibition at 3 µM (LTA4-h [1]): 0%
37,,10,CC(C)=CCOc1ccc(CNCc2ccc(N3CCCC(C(=O)O)C3)nc2)cc1 (stereo not shown) [Compound 32],
,,170,O=C(O)C1CCCN(c2ccc(CNCc3ccc(Oc4ccc5cc(Cl)ccc5n4)cc3)cn2)C1 (stereo not shown) [Compound 39],
,,,CCOC(=O)c1ccc(Oc2ncccc2CNCc2ccc(Oc3ccc(-c4ncco4)cc3)cc2)cc1 [Compound 9],inhibition at 1 µM (LTA4-h [2]): 45%
43,570,45,CN(Cc1ccc(Oc2ccc(Cl)cc2)cc1)Cc1ccc(N2CCC(C(=O)O)CC2)nc1 [Compound 5],
1,120,5,O=C(O)C1CCCN(c2ccc(CNCc3ccc(Oc4nc5ccccc5s4)cc3)cn2)C1 (stereo not shown) [Compound 30],
,,,CCOC(=O)c1ccc(Oc2ncccc2CN(C)Cc2ccc(Oc3ccc(Cl)cc3)cc2)cc1 [Compound 7],inhibition at 1 µM (LTA4-h [2]): 11%
350,1500,61,COc1cc(C(=O)O)ccc1Oc1ncccc1CNCc1ccc(Oc2ccc(-c3ncco3)cc2)cc1 [Compound 14],
100,800,21,O=C(O)c1ccc(Oc2ncccc2CNCc2ccc(Oc3ccc(Cl)cc3)cc2)cc1 [Compound 3],IC50 (LTA4-h hydrolase; [5]): 420 nM
1400,2300,75,O=C(O)c1cccc(Oc2ncccc2CNCc2ccc(Oc3ccc(-c4ncco4)cc3)cc2)c1 [Compound 13],
150,,28,CN(Cc1ccc(Oc2ccc(Cl)cc2)cc1)Cc1ccc(N2CCCC(C(=O)O)C2)nc1 (stereo not shown) [Compound 24],

SMILES,IC50 (LTA4-h [1]) [nM],IC50 (LTA4-h hydrolase; read-out: IC50 WBA) [nM],IC50 (LTA4-h [2]) [nM],other results
COCCN(Cc1ccc(Oc2ccc(Cl)cc2)cc1)Cc1ccccc1Oc1cccc(C(=O)O)c1 [Compound 15],,1950,470,inhibition at 3 µM (LTA4-h [1]): 18%
CN(Cc1ccc(Oc2ccc(Cl)cc2)cc1)Cc1ccc(Oc2ccc(C(=O)O)cc2)nc1 [Compound 4],,2100,300,inhibition at 1 µM (LTA4-h [1]; at 1 uM): 47%
